Source: ChEMBL document CHEMBL4507264, “Data for DCP probe BAY-7598” (2021)
The source made the active and inactive calls. The calls are words filed in the database; no cut-off is given here.

Experiments:
[1] = biological target: Macrophage metalloelastase (Homo sapiens, UniProt P39900); assay: Biochemical assay (MMP12)
[2] = test system: Tyrosine-protein kinase ABL1 (Homo sapiens), P00519 [M351T]; settings: Compound concentration 1000.0 nM
[3] = test system: ALK tyrosine kinase receptor (Homo sapiens), Q9UM73 [C1156Y]; settings: Compound concentration 1000.0 nM
[4] = test system: ALK tyrosine kinase receptor (Homo sapiens), Q9UM73 [L1196M]; settings: Compound concentration 1000.0 nM
[5] = biological target: Mitogen-activated protein kinase kinase kinase 5 (Homo sapiens) (UniProt Q99683); settings: Compound concentration 1000.0 nM
[6] = test system: Serine/threonine-protein kinase B-raf (Homo sapiens), P15056 [V600E]; settings: Compound concentration 1000.0 nM
[7] = biological target: Calcium/calmodulin-dependent protein kinase type II subunit delta (Homo sapiens) (UniProt Q13557); settings: Compound concentration 1000.0 nM
[8] = biological target: Calcium/calmodulin-dependent protein kinase kinase 2 (Homo sapiens) (UniProt Q96RR4); settings: Compound concentration 1000.0 nM
[9] = biological target: Cyclin-dependent kinase 11A (Homo sapiens) (UniProt Q9UQ88); settings: Compound concentration 1000.0 nM
[10] = biological target: Cyclin-dependent kinase-like 3 (Homo sapiens) (UniProt Q8IVW4); settings: Compound concentration 1000.0 nM
Chain of Cyclin-dependent kinase-like 3 (Homo sapiens) (Q8IVW4 whole entry, looked up): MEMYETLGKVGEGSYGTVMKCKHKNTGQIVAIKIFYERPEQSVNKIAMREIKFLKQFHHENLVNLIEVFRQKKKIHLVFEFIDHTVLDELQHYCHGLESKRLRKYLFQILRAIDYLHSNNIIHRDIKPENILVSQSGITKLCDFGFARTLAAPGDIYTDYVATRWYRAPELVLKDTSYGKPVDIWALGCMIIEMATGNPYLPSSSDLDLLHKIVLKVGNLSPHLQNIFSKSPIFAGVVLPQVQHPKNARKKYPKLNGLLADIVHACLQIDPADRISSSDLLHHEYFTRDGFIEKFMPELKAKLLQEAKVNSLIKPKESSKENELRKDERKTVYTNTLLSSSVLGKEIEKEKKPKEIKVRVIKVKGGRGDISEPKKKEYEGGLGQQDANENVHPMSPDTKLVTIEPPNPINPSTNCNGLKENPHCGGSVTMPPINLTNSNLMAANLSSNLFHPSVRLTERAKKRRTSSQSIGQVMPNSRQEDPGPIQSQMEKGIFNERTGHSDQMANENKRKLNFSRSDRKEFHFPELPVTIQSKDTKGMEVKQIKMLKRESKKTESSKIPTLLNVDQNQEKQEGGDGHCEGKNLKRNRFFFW

[11] = biological target: Macrophage colony-stimulating factor 1 receptor (Homo sapiens) (UniProt P07333); settings: Compound concentration 1000.0 nM
[12] = biological target: Death-associated protein kinase 2 (Homo sapiens) (UniProt Q9UIK4); settings: Compound concentration 1000.0 nM
[13] = biological target: Serine/threonine-protein kinase 17B (Homo sapiens) (UniProt O94768); settings: Compound concentration 1000.0 nM
[14] = biological target: Ephrin type-A receptor 5 (Homo sapiens) (UniProt P54756); settings: Compound concentration 1000.0 nM
[15] = biological target: Ephrin type-A receptor 7 (Homo sapiens) (UniProt Q15375); settings: Compound concentration 1000.0 nM
[16] = biological target: Ephrin type-B receptor 6 (Homo sapiens) (UniProt O15197); settings: Compound concentration 1000.0 nM
[17] = biological target: Receptor tyrosine-protein kinase erbB-2 (Homo sapiens) (UniProt P04626); settings: Compound concentration 1000.0 nM
Chain of Receptor tyrosine-protein kinase erbB-2 (Homo sapiens) (P04626 whole entry): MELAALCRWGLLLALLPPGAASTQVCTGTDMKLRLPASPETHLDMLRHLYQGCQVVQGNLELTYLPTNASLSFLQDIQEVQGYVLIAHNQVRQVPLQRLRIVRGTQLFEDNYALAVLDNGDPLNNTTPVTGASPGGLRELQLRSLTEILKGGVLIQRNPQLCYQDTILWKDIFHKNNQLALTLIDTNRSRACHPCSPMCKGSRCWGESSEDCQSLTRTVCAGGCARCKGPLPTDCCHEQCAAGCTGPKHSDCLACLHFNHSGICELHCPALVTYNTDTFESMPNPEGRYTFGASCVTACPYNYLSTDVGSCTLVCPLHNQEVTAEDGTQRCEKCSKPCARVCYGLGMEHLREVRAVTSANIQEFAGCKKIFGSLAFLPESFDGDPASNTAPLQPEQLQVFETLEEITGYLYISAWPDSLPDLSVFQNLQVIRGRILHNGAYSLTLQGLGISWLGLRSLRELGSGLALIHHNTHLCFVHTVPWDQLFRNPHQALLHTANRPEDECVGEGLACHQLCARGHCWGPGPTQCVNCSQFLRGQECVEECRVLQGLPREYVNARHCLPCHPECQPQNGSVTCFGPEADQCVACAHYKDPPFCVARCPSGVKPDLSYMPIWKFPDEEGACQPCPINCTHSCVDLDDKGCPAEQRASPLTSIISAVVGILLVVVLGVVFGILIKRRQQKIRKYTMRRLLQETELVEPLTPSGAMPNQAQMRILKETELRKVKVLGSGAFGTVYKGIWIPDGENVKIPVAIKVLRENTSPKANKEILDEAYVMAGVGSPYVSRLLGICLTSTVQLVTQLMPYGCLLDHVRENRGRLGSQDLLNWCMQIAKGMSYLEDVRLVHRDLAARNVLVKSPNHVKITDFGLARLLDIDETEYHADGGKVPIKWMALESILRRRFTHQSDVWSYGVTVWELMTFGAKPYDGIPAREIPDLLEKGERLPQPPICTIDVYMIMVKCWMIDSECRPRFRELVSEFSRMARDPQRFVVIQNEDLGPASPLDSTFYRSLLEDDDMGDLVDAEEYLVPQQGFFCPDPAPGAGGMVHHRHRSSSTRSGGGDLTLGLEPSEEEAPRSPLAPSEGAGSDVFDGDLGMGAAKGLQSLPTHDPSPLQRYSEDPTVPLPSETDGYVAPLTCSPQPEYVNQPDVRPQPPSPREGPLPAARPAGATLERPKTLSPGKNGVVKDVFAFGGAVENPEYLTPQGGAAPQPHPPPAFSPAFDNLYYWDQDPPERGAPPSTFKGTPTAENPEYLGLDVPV

[18] = biological target: Fibroblast growth factor receptor 4 (Homo sapiens) (UniProt P22455); settings: Compound concentration 1000.0 nM
[19] = biological target: Receptor-type tyrosine-protein kinase FLT3 (Homo sapiens) (UniProt P36888); settings: Compound concentration 1000.0 nM
[20] = biological target: Inhibitor of nuclear factor kappa-B kinase subunit beta (Homo sapiens) (UniProt O14920); settings: Compound concentration 1000.0 nM
[21] = test system: Mast/stem cell growth factor receptor Kit (Homo sapiens), P10721 [D816H]; settings: Compound concentration 1000.0 nM
[22] = test system: Mast/stem cell growth factor receptor Kit (Homo sapiens), P10721 [V559D,T670I]; settings: Compound concentration 1000.0 nM
[23] = biological target: LIM domain kinase 2 (Homo sapiens) (UniProt P53671); settings: Compound concentration 1000.0 nM
[24] = biological target: Serine/threonine-protein kinase 10 (Homo sapiens) (UniProt O94804); settings: Compound concentration 1000.0 nM
[25] = biological target: Leucine-rich repeat serine/threonine-protein kinase 2 (Homo sapiens) (UniProt Q5S007); settings: Compound concentration 1000.0 nM
[26] = biological target: Mitogen-activated protein kinase kinase kinase kinase 5 (Homo sapiens) (UniProt Q9Y4K4); settings: Compound concentration 1000.0 nM
[27] = biological target: Dual specificity mitogen-activated protein kinase kinase 6 (Homo sapiens) (UniProt P52564); settings: Compound concentration 1000.0 nM
Chain of Dual specificity mitogen-activated protein kinase kinase 6 (Homo sapiens) (P52564 whole entry): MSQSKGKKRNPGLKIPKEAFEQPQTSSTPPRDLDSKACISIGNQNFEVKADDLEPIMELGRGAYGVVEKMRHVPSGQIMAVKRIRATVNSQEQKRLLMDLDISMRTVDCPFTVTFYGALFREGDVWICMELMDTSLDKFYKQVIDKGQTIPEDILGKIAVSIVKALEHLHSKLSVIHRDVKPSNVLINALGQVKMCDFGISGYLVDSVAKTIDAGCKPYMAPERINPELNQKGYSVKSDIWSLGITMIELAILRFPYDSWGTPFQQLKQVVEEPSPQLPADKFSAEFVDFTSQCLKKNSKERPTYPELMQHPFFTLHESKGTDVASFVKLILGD

[28] = biological target: Misshapen-like kinase 1 (Homo sapiens) (UniProt Q8N4C8); settings: Compound concentration 1000.0 nM
[29] = biological target: Serine/threonine-protein kinase 3 (Homo sapiens) (UniProt Q13188); settings: Compound concentration 1000.0 nM
Chain of Serine/threonine-protein kinase 3 (Homo sapiens) (Q13188 whole entry): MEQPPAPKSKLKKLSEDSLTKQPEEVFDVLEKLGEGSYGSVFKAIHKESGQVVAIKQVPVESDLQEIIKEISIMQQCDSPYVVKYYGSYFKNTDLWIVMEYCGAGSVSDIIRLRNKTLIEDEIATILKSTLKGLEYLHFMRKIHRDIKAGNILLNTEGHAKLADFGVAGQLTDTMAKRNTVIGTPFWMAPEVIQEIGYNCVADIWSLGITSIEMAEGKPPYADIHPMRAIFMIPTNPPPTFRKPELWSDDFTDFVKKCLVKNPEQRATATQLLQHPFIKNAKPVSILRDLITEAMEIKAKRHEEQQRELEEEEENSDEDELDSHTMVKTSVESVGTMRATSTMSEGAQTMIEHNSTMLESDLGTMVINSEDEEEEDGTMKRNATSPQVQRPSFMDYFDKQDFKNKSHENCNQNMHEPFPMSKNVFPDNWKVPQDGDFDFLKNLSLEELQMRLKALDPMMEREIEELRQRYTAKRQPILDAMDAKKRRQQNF

[30] = biological target: Serine/threonine-protein kinase PAK 2 (Homo sapiens) (UniProt Q13177); settings: Compound concentration 1000.0 nM
[31] = biological target: 3-phosphoinositide-dependent protein kinase 1 (Homo sapiens) (UniProt O15530); settings: Compound concentration 1000.0 nM
[32] = biological target: Cyclin-dependent kinase 15 (Homo sapiens) (UniProt Q96Q40); settings: Compound concentration 1000.0 nM
[33] = biological target: Serine/threonine-protein kinase D2 (Homo sapiens) (UniProt Q9BZL6); settings: Compound concentration 1000.0 nM
[34] = biological target: Protein-tyrosine kinase 2-beta (Homo sapiens) (UniProt Q14289); settings: Compound concentration 1000.0 nM
[35] = biological target: RAF proto-oncogene serine/threonine-protein kinase (Homo sapiens) (UniProt P04049); settings: Compound concentration 1000.0 nM
[36] = biological target: Ribosomal protein S6 kinase alpha-4 (Homo sapiens) (UniProt O75676); settings: Compound concentration 1000.0 nM
[37] = biological target: Ribosomal protein S6 kinase alpha-3 (Homo sapiens) (UniProt P51812); settings: Compound concentration 1000.0 nM
[38] = biological target: Ribosomal protein S6 kinase alpha-2 (Homo sapiens) (UniProt Q15349); settings: Compound concentration 1000.0 nM
[39] = biological target: Serine/threonine-protein kinase SBK1 (Homo sapiens) (UniProt Q52WX2); settings: Compound concentration 1000.0 nM
[40] = biological target: Serine/threonine-protein kinase SIK1 (Homo sapiens) (UniProt P57059); settings: Compound concentration 1000.0 nM
[41] = biological target: Serine/threonine-protein kinase TAO3 (Homo sapiens) (UniProt Q9H2K8); settings: Compound concentration 1000.0 nM
Chain of Serine/threonine-protein kinase TAO3 (Homo sapiens) (Q9H2K8 whole entry): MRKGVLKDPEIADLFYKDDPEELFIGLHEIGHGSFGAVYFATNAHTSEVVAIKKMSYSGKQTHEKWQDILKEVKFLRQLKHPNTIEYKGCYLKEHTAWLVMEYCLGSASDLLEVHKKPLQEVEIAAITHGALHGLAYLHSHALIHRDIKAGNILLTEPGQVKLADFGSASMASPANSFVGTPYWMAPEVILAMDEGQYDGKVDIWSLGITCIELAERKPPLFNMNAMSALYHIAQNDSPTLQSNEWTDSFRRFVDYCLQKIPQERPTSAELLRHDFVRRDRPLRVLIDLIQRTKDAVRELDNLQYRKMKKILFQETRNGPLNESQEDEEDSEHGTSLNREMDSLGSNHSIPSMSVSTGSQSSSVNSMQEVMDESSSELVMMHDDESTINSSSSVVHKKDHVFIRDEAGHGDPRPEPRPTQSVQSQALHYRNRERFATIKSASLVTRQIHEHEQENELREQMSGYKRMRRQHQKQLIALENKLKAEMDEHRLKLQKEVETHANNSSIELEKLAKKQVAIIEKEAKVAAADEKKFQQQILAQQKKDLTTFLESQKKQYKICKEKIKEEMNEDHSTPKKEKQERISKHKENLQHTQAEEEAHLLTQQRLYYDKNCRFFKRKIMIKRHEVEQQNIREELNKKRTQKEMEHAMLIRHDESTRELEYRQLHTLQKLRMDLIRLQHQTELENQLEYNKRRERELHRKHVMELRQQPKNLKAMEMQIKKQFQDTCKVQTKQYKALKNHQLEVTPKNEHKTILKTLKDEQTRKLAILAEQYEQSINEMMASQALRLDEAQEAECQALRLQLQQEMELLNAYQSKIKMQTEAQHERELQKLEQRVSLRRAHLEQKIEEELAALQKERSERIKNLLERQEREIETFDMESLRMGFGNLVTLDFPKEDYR

[42] = biological target: Tyrosine-protein kinase receptor TYRO3 (Homo sapiens) (UniProt Q06418); settings: Compound concentration 1000.0 nM
[43] = biological target: 5-hydroxytryptamine receptor 1E (Homo sapiens) (UniProt P28566); settings: Compound concentration 10.0 uM
Chain of 5-hydroxytryptamine receptor 1E (Homo sapiens) (P28566 whole entry): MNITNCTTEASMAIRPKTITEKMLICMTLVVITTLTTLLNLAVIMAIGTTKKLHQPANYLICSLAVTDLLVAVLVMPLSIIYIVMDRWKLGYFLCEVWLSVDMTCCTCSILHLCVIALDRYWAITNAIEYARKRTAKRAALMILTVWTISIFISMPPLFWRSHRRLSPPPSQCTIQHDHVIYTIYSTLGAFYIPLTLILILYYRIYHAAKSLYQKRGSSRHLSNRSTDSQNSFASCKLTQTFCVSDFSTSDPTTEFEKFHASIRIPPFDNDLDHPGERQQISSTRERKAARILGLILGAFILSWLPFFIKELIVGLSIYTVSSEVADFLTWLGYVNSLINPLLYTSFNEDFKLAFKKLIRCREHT

[44] = biological target: 5-hydroxytryptamine receptor 7 (Homo sapiens) (UniProt P34969); settings: Compound concentration 10.0 uM
[45] = biological target: D(2) dopamine receptor (Homo sapiens) (UniProt P14416); settings: Compound concentration 10.0 uM
[46] = biological target: Sodium-dependent serotonin transporter (Homo sapiens) (UniProt P31645); settings: Compound concentration 10.0 uM
Chain of Sodium-dependent serotonin transporter (Homo sapiens) (P31645 whole entry, looked up): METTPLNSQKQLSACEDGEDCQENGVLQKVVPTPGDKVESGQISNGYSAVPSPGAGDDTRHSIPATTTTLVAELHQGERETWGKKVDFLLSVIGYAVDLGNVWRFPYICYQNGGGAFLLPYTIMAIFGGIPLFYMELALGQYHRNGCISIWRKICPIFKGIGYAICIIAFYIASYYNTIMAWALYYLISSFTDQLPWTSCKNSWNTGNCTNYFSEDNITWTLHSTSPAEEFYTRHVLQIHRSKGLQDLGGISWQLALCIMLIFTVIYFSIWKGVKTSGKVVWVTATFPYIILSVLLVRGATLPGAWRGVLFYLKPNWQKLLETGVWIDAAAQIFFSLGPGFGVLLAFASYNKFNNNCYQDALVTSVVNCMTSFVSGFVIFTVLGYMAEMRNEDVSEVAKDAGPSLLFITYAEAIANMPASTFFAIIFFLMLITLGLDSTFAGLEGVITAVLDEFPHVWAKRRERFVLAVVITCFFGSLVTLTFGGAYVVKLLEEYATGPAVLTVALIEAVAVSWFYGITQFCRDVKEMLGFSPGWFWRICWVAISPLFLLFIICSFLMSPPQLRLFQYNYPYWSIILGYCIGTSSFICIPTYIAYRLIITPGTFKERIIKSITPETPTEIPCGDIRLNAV

Chain of Macrophage metalloelastase (P39900 whole entry): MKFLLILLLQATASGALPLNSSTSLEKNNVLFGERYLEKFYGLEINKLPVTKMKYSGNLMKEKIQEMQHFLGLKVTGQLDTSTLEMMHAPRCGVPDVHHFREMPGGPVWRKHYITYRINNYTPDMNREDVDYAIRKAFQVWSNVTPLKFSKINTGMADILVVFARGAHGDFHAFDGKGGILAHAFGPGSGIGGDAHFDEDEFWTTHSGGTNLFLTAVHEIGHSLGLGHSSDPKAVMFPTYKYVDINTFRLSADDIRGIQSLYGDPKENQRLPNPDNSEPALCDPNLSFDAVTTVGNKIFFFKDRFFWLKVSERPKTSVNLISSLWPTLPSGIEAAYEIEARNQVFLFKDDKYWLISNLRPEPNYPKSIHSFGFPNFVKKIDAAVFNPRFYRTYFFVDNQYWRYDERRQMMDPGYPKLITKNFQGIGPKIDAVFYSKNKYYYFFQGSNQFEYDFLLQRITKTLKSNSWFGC

O=C(O)[C@@H]1[C@@H](Cn2nnc3ccccc3c2=O)CC[C@H]1C(=O)c1ccc(OCCC2CCOCC2)cc1 [BAY-694]
IC50 [1]: 80 nM (not active) | residual activity [2]: 95% | residual activity [3]: 100% | residual activity [4]: 93% | residual activity [5]: 94% | residual activity [6]: 100% | residual activity [7]: 100% | residual activity [8]: 100% | residual activity [9]: 91% | residual activity [10]: 98% | residual activity [11]: 100% | residual activity [12]: 100% | residual activity [13]: 99% | residual activity [14]: 94% | residual activity [15]: 100% | residual activity [16]: 100% | residual activity [17]: 100% | residual activity [18]: 99% | residual activity [19]: 100% | residual activity [20]: 100% | residual activity [21]: 68% | residual activity [22]: 98% | residual activity [23]: 100% | residual activity [24]: 84% | residual activity [25]: 100% | residual activity [26]: 100% | residual activity [27]: 100% | residual activity [28]: 100% | residual activity [29]: 100% | residual activity [30]: 82% | residual activity [31]: 80% | residual activity [32]: 100% | residual activity [33]: 73% | residual activity [34]: 100% | residual activity [35]: 100% | residual activity [36]: 85% | residual activity [37]: 85% | residual activity [38]: 96% | residual activity [39]: 100% | residual activity [40]: 91% | residual activity [41]: 100% | residual activity [42]: 100% | inhibition [43]: 3.94% | inhibition [44]: -2.99% | inhibition [45]: -5.06% | inhibition [46]: 10.2%

O=C(O)[C@H]1[C@H](Cn2nnc3ccccc3c2=O)CC[C@@H]1C(=O)c1ccc(OCCC2CCOCC2)cc1 [BAY-7598]
IC50 [1]: 0.085 nM (active) | residual activity [2]: 82% | residual activity [3]: 100% | residual activity [4]: 81% | residual activity [5]: 95% | residual activity [6]: 100% | residual activity [7]: 86% | residual activity [8]: 90% | residual activity [9]: 92% | residual activity [10]: 87% | residual activity [11]: 81% | residual activity [12]: 100% | residual activity [13]: 100% | residual activity [14]: 100% | residual activity [15]: 100% | residual activity [16]: 89% | residual activity [17]: 100% | residual activity [18]: 100% | residual activity [19]: 99% | residual activity [20]: 100% | residual activity [21]: 80% | residual activity [22]: 69% | residual activity [23]: 90% | residual activity [24]: 100% | residual activity [25]: 90% | residual activity [26]: 92% | residual activity [27]: 100% | residual activity [28]: 100% | residual activity [29]: 91% | residual activity [30]: 69% | residual activity [31]: 74% | residual activity [32]: 100% | residual activity [33]: 73% | residual activity [34]: 75% | residual activity [35]: 91% | residual activity [36]: 97% | residual activity [37]: 83% | residual activity [38]: 90% | residual activity [39]: 68% | residual activity [40]: 100% | residual activity [41]: 100% | residual activity [42]: 100% | inhibition [43]: 7.37% | inhibition [44]: -3.55% | inhibition [45]: 30.3% | inhibition [46]: 13.9%
